For one experiment, the target named is T1, JAK1 (Homo sapiens, UniProt P23458).
T1 construct: purchased Carna Biosciences
In words: JAK biochemical microfluidic assay (Caliper EZ Reader), JAK1. The conditions noted are these: 1 mM ATP; head prints (5 nM). The protocol: (§1) JAK activity was determined in the reaction buffer 50 mM HEPES, 0.01% Brij35, 10 mM MgCl2, 2 mM DTT by a microfluidic assay. The phosphorylation of a FAM labeled peptide substrate was monitored in the Caliper EZ Reader II (Perkin Elmer). The assay condition for each batch of enzyme (Carna Biosciences) was optimized to obtain 10% conversion rate of peptide substrate.
(§2) The test compounds were dissolved in DMSO to a stock concentration of 10 mM. Three-fold serially diluted compounds with top concentration of 5 μM were pre-incubated with JAK1, JAK2 or TYK2 for 10 min at ambient temperature. The final DMSO concentration of assay mixture was 1%. […] The reaction was stopped by adding 50 mM EDTA.
(§3) The percent inhibition was calculated by the following formula. % Inhibition=(Conversionmax−Conversionsample)/(Conversionmax−Conversionmin)*100 Conversionmax means the conversion rate in the positive well without addition of compound • […] means the conversion rate in the well without addition of enzyme • Conversionsample means the conversion rate of test compounds
(§4) The dose-response (percent inhibition) curve was plotted and IC50 values were determined by GraphPad software.

A further experiment addresses T2, JAK2 (Homo sapiens, UniProt O60674).
T2 construct: purchased Carna Biosciences
In words: JAK biochemical microfluidic assay (Caliper EZ Reader), JAK2. Conditions: 1 mM ATP; head prints (0.25 nM). Here is the method: as §1, §2, §3, §4

In patent US11851431B2, “Tricyclic Janus kinase 1 inhibitors, and compositions and methods thereof” (LYNK PHARMACEUTICALS CO. LTD., priority 2018, dated 2023) one finds IC50 data, which are given here for 30 compounds.

Usually IC50 stands for the concentration needed to halve the response being measured. Read a low IC50 as inhibition by little substance.

T1 sequence (P23458 whole entry): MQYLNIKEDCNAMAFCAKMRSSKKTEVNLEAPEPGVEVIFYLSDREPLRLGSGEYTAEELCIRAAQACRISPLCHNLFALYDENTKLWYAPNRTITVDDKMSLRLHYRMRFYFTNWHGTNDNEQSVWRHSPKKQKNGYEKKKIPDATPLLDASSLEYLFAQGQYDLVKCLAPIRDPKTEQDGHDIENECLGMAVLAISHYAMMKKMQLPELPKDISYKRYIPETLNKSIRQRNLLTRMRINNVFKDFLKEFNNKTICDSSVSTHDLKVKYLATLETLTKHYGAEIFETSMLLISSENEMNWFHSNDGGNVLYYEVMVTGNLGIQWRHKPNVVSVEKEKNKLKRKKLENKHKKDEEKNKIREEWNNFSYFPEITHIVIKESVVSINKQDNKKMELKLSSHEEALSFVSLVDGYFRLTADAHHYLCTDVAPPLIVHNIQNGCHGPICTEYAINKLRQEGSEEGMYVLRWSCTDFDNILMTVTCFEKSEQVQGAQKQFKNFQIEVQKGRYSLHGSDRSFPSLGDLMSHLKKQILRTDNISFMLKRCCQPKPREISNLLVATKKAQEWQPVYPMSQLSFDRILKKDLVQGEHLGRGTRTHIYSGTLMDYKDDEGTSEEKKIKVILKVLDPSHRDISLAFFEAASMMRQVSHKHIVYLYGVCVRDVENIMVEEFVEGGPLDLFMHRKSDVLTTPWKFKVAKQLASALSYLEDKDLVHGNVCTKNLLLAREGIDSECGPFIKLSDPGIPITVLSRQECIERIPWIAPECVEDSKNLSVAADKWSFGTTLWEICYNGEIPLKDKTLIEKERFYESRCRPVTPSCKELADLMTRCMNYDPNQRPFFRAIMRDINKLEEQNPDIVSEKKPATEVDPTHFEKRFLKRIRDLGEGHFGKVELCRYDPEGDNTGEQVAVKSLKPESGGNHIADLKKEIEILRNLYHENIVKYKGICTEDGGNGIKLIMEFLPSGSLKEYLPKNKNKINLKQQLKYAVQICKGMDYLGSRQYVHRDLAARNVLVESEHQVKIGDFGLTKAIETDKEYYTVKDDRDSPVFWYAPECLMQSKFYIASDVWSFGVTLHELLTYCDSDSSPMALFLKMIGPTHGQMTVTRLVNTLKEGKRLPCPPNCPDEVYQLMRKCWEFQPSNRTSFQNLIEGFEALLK
T2 sequence (O60674 whole entry): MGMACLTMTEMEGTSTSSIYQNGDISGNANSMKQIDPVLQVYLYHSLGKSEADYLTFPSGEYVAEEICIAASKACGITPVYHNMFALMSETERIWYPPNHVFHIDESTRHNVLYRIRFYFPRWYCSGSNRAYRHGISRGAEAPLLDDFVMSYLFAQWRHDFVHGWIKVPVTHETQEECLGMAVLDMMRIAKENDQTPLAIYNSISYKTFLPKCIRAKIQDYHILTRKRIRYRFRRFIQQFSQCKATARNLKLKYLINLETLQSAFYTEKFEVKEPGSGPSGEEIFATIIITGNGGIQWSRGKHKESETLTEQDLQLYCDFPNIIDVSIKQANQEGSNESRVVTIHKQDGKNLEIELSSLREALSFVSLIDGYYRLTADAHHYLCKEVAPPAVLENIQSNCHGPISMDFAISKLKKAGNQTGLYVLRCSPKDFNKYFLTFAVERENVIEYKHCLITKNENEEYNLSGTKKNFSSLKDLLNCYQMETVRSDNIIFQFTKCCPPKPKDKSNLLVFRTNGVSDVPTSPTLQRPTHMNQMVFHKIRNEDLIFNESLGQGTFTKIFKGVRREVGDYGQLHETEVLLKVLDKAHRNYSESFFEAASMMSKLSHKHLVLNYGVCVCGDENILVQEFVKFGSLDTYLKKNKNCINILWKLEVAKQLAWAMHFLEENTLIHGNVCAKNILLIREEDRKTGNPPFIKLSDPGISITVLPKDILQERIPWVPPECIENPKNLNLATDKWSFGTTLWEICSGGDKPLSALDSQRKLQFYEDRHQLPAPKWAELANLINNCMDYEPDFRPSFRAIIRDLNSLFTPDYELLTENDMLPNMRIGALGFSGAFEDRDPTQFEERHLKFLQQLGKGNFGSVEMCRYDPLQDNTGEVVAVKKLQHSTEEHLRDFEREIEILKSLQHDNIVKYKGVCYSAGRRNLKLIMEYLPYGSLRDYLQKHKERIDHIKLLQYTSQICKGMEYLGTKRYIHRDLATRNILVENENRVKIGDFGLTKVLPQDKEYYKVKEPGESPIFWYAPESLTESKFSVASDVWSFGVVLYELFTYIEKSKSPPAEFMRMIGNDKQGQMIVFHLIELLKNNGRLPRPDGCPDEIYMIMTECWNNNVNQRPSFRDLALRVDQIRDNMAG

For `NC12CC(n3cnc4cnc5[nH]ccc5c43)(C1)C2` [Example 1j, 3-(Imidazo[4,5-d]pyrrolo[2,3-b]pyridin-1(6H)-yl)bicyclo[1.1.1]pentan-1-amine 2,2,2-trifluoroacetate], the IC50 on JAK1 turned out to be 278 nM. Consider `N[C@H]1C[C@@H](n2cnc3cnc4[nH]ccc4c32)C1` [Example 2e, Cis-3-(imidazo[4,5-d]pyrrolo[2,3-b]pyridin-1(6H)-yl)cyclobutanamine 2,2,2-trifluoroacetate], for which the IC50 on JAK1 is 2570 nM; at JAK2, greater than 5000 nM.

In the case of `CC(C)CC(=O)NC12CC(n3cnc4cnc5[nH]ccc5c43)(C1)C2` [Example 8, N-(3-(Imidazo[4,5-d]pyrrolo[2,3-b]pyridin-1(6H)-yl)bicyclo[1.1.1]pentan-1-yl)-3-methylbutanamide], the figures for the IC50 against JAK1 and at JAK2 were 47.4 nM and 328 nM, respectively. The like results for `CCCC(=O)NC12CC(n3cnc4cnc5[nH]ccc5c43)(C1)C2` [Example 9, N-(3-(imidazo[4,5-d]pyrrolo[2,3-b]pyridin-1(6H)-yl)bicyclo[1.1.1]pentan-1-yl)butyramide] were, in that order, 58.7 nM and 441 nM.

For the compound `CC(C)COC(=O)NC12CC(n3cnc4cnc5[nH]ccc5c43)(C1)C2` [Example 10, Isobutyl (3-(imidazo[4,5-d]pyrrolo[2,3-b]pyridin-1(6H)-yl)bicyclo[1.1.1]pentan-1-yl)carbamate], the figures for the IC50 at JAK1 and at JAK2 were 165 nM and 868 nM, respectively. The like results for `N#CCC(=O)NC12CC(n3cnc4cnc5[nH]ccc5c43)(C1)C2` [Example 11, 2-Cyano-N-(3-(imidazo[4,5-d]pyrrolo[2,3-b]pyridin-1(6H)-yl)bicyclo[1.1.1]pentan-1-yl)acetamide] were, in that order, 11.7 nM and 166 nM. As for `O=C(NC12CC(n3cnc4cnc5[nH]ccc5c43)(C1)C2)C1CC1` [Example 12, N-(3-(Imidazo[4,5-d]pyrrolo[2,3-b]pyridin-1(6H)-yl)bicyclo[1.1.1]pentan-1-yl)cyclopropanecarboxamide], the IC50 against JAK1 was determined as 35.5 nM. On the same count and under the same terms, the same measure for `O=C(NC12CC(n3cnc4cnc5[nH]ccc5c43)(C1)C2)c1ccc(Cl)cc1` [Example 15, 4-Chloro-N-(3-(imidazo[4,5-d]pyrrolo[2,3-b]pyridin-1(6H)-yl)bicyclo[1.1.1]pentan-1-yl)benzamide]: 82.6 nM; for `CC(C)OC(=O)NC12CC(n3cnc4cnc5[nH]ccc5c43)(C1)C2` [Example 16, Isopropyl (3-(imidazo[4,5-d]pyrrolo[2,3-b]pyridin-1(6H)-yl)bicyclo[1.1.1]pentan-1-yl)carbamate]: 64 nM.

Regarding `O=C(NC12CC(n3cnc4cnc5[nH]ccc5c43)(C1)C2)OCC1CC1` [Example 19, Cyclopropylmethyl (3-(imidazo[4,5-d]pyrrolo[2,3-b]pyridin-1(6H)-yl)bicyclo[1.1.1]pentan-1-yl)carbamate], the results for the half-inhibitory concentration (IC50) at JAK1 and against JAK2 were 51.3 nM and 578 nM, respectively. For `COC1CN(S(=O)(=O)NC23CC(n4cnc5cnc6[nH]ccc6c54)(C2)C3)C1` [Example 21, N-(3-(imidazo[4,5-d]pyrrolo[2,3-b]pyridin-1(6H)-yl)bicyclo[1.1.1]pentan-1-yl)-3-methoxyazetidine-1-sulfonamide], in that order: 14.2 nM and 326 nM. `CN(C)S(=O)(=O)NC12CC(n3cnc4cnc5[nH]ccc5c43)(C1)C2` [Example 24, N-(3-(imidazo[4,5-d]pyrrolo[2,3-b]pyridin-1(6H)-yl)bicyclo[1.1.1]pentan-1-yl)-N′-dimethyl-1-sulfonamide] displayed a 50% inhibitory concentration (IC50) on JAK1 of 23 nM.

In turn, `CCN(C)S(=O)(=O)NC12CC(n3cnc4cnc5[nH]ccc5c43)(C1)C2` [Example 25, N-(3-(imidazo[4,5-d]pyrrolo[2,3-b]pyridin-1(6H)-yl)bicyclo[1.1.1]pentan-1-yl)-N′-methyl-N′-ethyl-1-sulfonamide] showed an IC50 at JAK1 of 26.1 nM. `COCCCS(=O)(=O)NC12CC(n3cnc4cnc5[nH]ccc5c43)(C1)C2` [Example 26, N-(3-(Imidazo[4,5-d]pyrrolo[2,3-b]pyridin-1(6H)-yl)bicyclo[1.1.1]pentan-1-yl)-3-methoxypropane-1-sulfonamide]: the concentration for half-maximal inhibition (IC50) against JAK1 amounted to 26.2 nM; against JAK2, 849 nM. In the case of `CCS(=O)(=O)NC12CC(n3cnc4cnc5[nH]ccc5c43)(C1)C2` [Example 27, N-(3-(imidazo[4,5-d]pyrrolo[2,3-b]pyridin-1(6H)-yl)bicyclo[1.1.1]pentan-1-yl)ethanesulfonamide], the IC50 stood at 20.2 nM at JAK1 and 291 nM on JAK2.

With `Cn1cc(S(=O)(=O)NC23CC(n4cnc5cnc6[nH]ccc6c54)(C2)C3)cn1` [Example 29, N-(3-(imidazo[4,5-d]pyrrolo[2,3-b]pyridin-1(6H)-yl)bicyclo[1.1.1]pentan-1-yl)-1-methyl-1H-pyrazole-4-sulfonamide], the IC50 against JAK1 is 90.5 nM; on JAK2, 992 nM. Regarding `CC(C)S(=O)(=O)NC12CC(n3cnc4cnc5[nH]ccc5c43)(C1)C2` [Example 30, N-(3-(imidazo[4,5-d]pyrrolo[2,3-b]pyridin-1(6H)-yl)bicyclo[1.1.1]pentan-1-yl)propane-2-sulfonamide], the IC50 against JAK1 is 25.5 nM; against JAK2, 226 nM. For `N#CCS(=O)(=O)NC12CC(n3cnc4cnc5[nH]ccc5c43)(C1)C2` [Example 33, 1-Cyano-N-(3-(imidazo[4,5-d]pyrrolo[2,3-b]pyridin-1(6H)-yl)bicyclo[1.1.1]pentan-1-yl)methanesulfonamide], in that order: 14.4 nM and 146 nM. On to `CCCNC(=O)NC12CC(n3cnc4cnc5[nH]ccc5c43)(C1)C2` [Example 34, 1-(3-(Imidazo[4,5-d]pyrrolo[2,3-b]pyridin-1(6H)-yl)bicyclo[1.1.1]pentan-1-yl)-3-propylurea], for which the half-maximal inhibitory concentration (IC50) is 25.4 nM against JAK1 and 199 nM at JAK2.

Compound `O=C(NC1CC1)NC12CC(n3cnc4cnc5[nH]ccc5c43)(C1)C2` [Example 35, 1-Cyclopropyl-3-(3-(imidazo[4,5-d]pyrrolo[2,3-b]pyridin-1(6H)-yl)bicyclo[1.1.1]pentan-1-yl)urea] showed an IC50 on JAK1 of 235 nM. At JAK1, `CC(C)CNC(=O)NC12CC(n3cnc4cnc5[nH]ccc5c43)(C1)C2` [Example 36, 1-(3-(Imidazo[4,5-d]pyrrolo[2,3-b]pyridin-1(6H)-yl)bicyclo[1.1.1]pentan-1-yl)-3-isobutylurea] displayed a half-maximal inhibitory concentration (IC50) of 49.5 nM. For `O=C(NC12CC(n3cnc4cnc5[nH]ccc5c43)(C1)C2)N1CC(F)(F)C1` [Example 37, 3,3-Difluoro-N-(3-(imidazo[4,5-d]pyrrolo[2,3-b]pyridin-1(6H)-yl)bicyclo[1.1.1]pentan-1-yl)azetidine-1-carboxamide], the results for the IC50 on JAK1 and at JAK2 were 101 nM and 678 nM, respectively.

For `COC1CN(C(=O)NC23CC(n4cnc5cnc6[nH]ccc6c54)(C2)C3)C1` [Example 38, N-(3-(Imidazo[4,5-d]pyrrolo[2,3-b]pyridin-1(6H)-yl)bicyclo[1.1.1]pentan-1-yl)-3-methoxyazetidine-1-carboxamide], the IC50 at JAK1 was 389 nM; on JAK2 it was 3300 nM. The like results for `N#CC1CCN(C(=O)NC23CC(n4cnc5cnc6[nH]ccc6c54)(C2)C3)C1` (stereo not shown) [Example 39, 3-Cyano-N-(3-(imidazo[4,5-d]pyrrolo[2,3-b]pyridin-1(6H)-yl)bicyclo[1.1.1]pentan-1-yl)pyrrolidine-1-carboxamide] were, in that order, 68.7 nM and 526 nM. In the case of `CC(C)(C#N)CNC(=O)NC12CC(n3cnc4cnc5[nH]ccc5c43)(C1)C2` [Example 40, 1-(2-Cyano-2-methylpropyl)-3-(3-(imidazo[4,5-d]pyrrolo[2,3-b]pyridin-1(6H)-yl)bicyclo[1.1.1]pentan-1-yl)urea], the IC50 was 49.4 nM at JAK1 and 355 nM against JAK2. On to `CC(C)(C#N)COC(=O)NC12CC(n3cnc4cnc5[nH]ccc5c43)(C1)C2` [Example 42, 2-Cyano-2-methylpropyl (3-(imidazo[4,5-d]pyrrolo[2,3-b]pyridin-1(6H)-yl)bicyclo[1.1.1]pentan-1-yl)carbamate], for which the IC50 against JAK1 is 142 nM; against JAK2, 965 nM. With `N#CCCNC(=O)NC12CC(n3cnc4cnc5[nH]ccc5c43)(C1)C2` [Example 43, 1-(2-Cyanoethyl)-3-(3-(imidazo[4,5-d]pyrrolo[2,3-b]pyridin-1(6H)-yl)bicyclo[1.1.1]pentan-1-yl)urea], the results for the IC50 against JAK1 and on JAK2 were 15.6 nM and 223 nM, respectively. For the compound `CNS(=O)(=O)C[C@H]1C[C@@H](n2cnc3cnc4[nH]ccc4c32)C1` [Example 44, 1-(Cis-3-(imidazo[4,5-d]pyrrolo[2,3-b]pyridin-1(6H)-yl)cyclobutyl)-N-methylmethanesulfonamide], the IC50 against JAK1 was found to be 159 nM; against JAK2, 604 nM. For `N#CC1CN(S(=O)(=O)C[C@H]2C[C@@H](n3cnc4cnc5[nH]ccc5c43)C2)C1` [Example 45, 1-(((Cis-3-(imidazo[4,5-d]pyrrolo[2,3-b]pyridin-1(6H)-yl)cyclobutyl)methyl)sulfonyl) azetidine-3-carbonitrile], in that order: 15.7 nM and 170 nM.

As for `CCCS(=O)(=O)NC12CC(n3c([C@@H](C)O)nc4cnc5[nH]ccc5c43)(C1)C2` [Example 47, (R)—N-(3-(2-(1-hydroxyethyl)imidazo[4,5-d]pyrrolo[2,3-b]pyridin-1(6H)-yl)bicyclo[1.1.1]pentan-1-yl)propane-1-sulfonamide], the 50% inhibitory concentration (IC50) against JAK1 was determined as 48.7 nM; at JAK2 it was 1110 nM.
